From publication PMC7347136 (PLoS ONE, 2020)
Read-outs that look alike come from different tables or passages of the source.

Key:
Colo205 = assay: Resazurin reduction cell viability assay; format: cell-based, human; details: 72 h continuous treatment, read-out: Colo205 IC50 ± SD
Procedure: (§1) Solid tumor cell lines were seeded in 100 μl medium into 96-well plates at an appropriate cell number determined by a cell dilution assay (Cal51–2000 cells/well; Colo205, MCF10A and 184A1–3000 cells/well and MDA-MB-468, HCC1954–4000 cells/well). AML suspension cells were seeded in 96-well plates at approximately 3000 cells per well. Cells were incubated overnight at 37°C, 5% CO2. The following day, 100 μl fresh medium containing increasing concentrations of appropriate compound was added and the cells were incubated for up to 72 h at 37°C, 5% CO2. For pulse treatment of solid (adherent) tumor cell lines, medium was aspirated and replaced with fresh drug-free medium. For pulse treatment of suspension lines, plates were centrifuged at 478 xg for 5 min at the end of the incubation period with compound, medium containing compound was carefully aspirated and replaced with fresh compound-free medium. A total of 72 h after the start of treatment, 20 μl of a 10X stock of resazurin sodium salt (Sigma-Aldrich, Dorset, UK) prepared in medium was added to the cells and incubated for up to 3 h. […] was measured on the Wallac Victor plate reader (Cambridge, UK) at 544–595 nm. IC50/70/90 calculations were determined in XLFit.

THP-1 = assay: Resazurin reduction cell viability assay; format: cell-based, human; details: Homo sapiens, THP-1, 72 h, THP-1; value the 7 x 7 combination matrix spans; 72 h; read-out: IC50 value of each compound (single agent)
Procedure: as §1

[1] = test system: subcutaneous EOL-1 tumors; assay: EOL-1 human eosinophilic leukemia xenograft model; format: in vivo, SCID mice
Procedure: Female athymic CB-17 SCID (Harlan Sprague-Dawley) mice between 6–7 weeks of age weighing approximately 22 grams were housed in a 12-h light-dark cycle at 70–74°F (21–23°C) and 40–60% humidity. Animals were fed water ad libitum (reverse osmosis, 2 ppm Cl2) and an irradiated standard rodent diet (Teklad 2919) consisting of 19% protein, 9% fat, and 4% fiber. Mice were injected subcutaneously into the right flank with 1x10^7 EOL-1 cells in 100 μl of a 1:1 HBSS:Matrigel solution. When tumors reached approximately 125–250 mm^3, animals were matched by tumor volume and then randomized into treatment and control groups before dosing was initiated. […] Cytarabine, also known as cytosine arabinoside (AraC), was administered by daily ip injection for 5 days only. Agent toxicity was assessed by effects on body weight and clinical signs. Animals were weighed twice weekly using a digital scale (Ohaus SP601). Beginning on Day 0, tumor dimensions were measured twice weekly by digital caliper (Fowler Ultra-Cal IV); tumor volume was calculated using the formula TV = width^2 x length x 0.52. […] Statistical differences in tumor volume were determined using a two-tailed One-Way Analysis of Variance (ANOVA) followed by the Dunnett’s multiple comparisons test comparing treated groups with control. For animal welfare the following methods were used: (a) methods of sacrifice: isoflurane anesthesia followed by cervical dislocation; (b) methods of anesthesia and/or analgesia: isoflurane anesthesia and (c) efforts to alleviate suffering: carprofen if animal veterinarian decides necessary or euthanasia.

IC50 (Colo205; Homo sapiens, COLO 205, 72 h)	IC50 (THP-1)	SMILES	other results
820 nM		CC[C@H](Nc1nc(NCc2cccnc2)c2ncn(C(C)C)c2n1)[C@@H](C)O [CCT068127]	
	60 nM	CC1(C)CCC(CN2CCN(c3ccc(C(=O)NS(=O)(=O)c4ccc(NCC5CCOCC5)c([N+](=O)[O-])c4)c(Oc4cnc5[nH]ccc5c4)c3)CC2)=C(c2ccc(Cl)cc2)C1 [ABT-199, reference compound]	
		Nc1ccn([C@@H]2O[C@H](CO)[C@@H](O)[C@@H]2O)c(=O)n1 [cytarabine, cytosine arabinoside, reference compound]	transient body weight loss ([1]; 100 mg/kg i.p.): 3%; tumor growth inhibition (TGI) ([1]; 100 mg/kg i.p. days 1-5, Day 19): 38%; median TGI ([1]; 100 mg/kg i.p. days 1-5, day 9): 41%
	430 nM	CN(C)CC[C@H](CSc1ccccc1)Nc1ccc(S(=O)(=O)NC(=O)c2ccc(N3CCN(Cc4ccccc4-c4ccc(Cl)cc4)CC3)cc2)cc1[N+](=O)[O-] [ABT-737, reference compound]	
129 nM		CN1CC[C@H](c2c(O)cc(O)c3c(=O)cc(-c4ccccc4Cl)oc23)[C@H](O)C1 [Alvocidib (flavopiridol), reference compound]	IC50 (Colo205): 130 ± 20 nM
	270 nM	CC1(C)CCC(c2ccc(Cl)cc2)=C(CN2CCN(c3ccc(C(=O)NS(=O)(=O)c4ccc(N[C@H](CCN5CCOCC5)CSc5ccccc5)c(S(=O)(=O)C(F)(F)F)c4)cc3)CC2)C1 [ABT-263, reference compound]	
